These results are taken from patent publication US20120220581A1, “IMIDAZO[1,2-b]PYRIDAZINE DERIVATIVES AND THEIR USE AS PDE10 INHIBITORS” (Janssen-Cilag, S.A., priority 2009, published 2012).

Usually ED50 stands for the midpoint of the dose-response relation.

Test [1] has as its target T1, Rat recombinant PDE10A (rPDE10A2) (Rattus norvegicus, UniProt Q9QYJ6).
T1 construct: inferred from the Ni metal chelate purification; made in house; host or cells: Sf9 insect cells (baculovirus)
T1 sequence (Q9QYJ6 1-794): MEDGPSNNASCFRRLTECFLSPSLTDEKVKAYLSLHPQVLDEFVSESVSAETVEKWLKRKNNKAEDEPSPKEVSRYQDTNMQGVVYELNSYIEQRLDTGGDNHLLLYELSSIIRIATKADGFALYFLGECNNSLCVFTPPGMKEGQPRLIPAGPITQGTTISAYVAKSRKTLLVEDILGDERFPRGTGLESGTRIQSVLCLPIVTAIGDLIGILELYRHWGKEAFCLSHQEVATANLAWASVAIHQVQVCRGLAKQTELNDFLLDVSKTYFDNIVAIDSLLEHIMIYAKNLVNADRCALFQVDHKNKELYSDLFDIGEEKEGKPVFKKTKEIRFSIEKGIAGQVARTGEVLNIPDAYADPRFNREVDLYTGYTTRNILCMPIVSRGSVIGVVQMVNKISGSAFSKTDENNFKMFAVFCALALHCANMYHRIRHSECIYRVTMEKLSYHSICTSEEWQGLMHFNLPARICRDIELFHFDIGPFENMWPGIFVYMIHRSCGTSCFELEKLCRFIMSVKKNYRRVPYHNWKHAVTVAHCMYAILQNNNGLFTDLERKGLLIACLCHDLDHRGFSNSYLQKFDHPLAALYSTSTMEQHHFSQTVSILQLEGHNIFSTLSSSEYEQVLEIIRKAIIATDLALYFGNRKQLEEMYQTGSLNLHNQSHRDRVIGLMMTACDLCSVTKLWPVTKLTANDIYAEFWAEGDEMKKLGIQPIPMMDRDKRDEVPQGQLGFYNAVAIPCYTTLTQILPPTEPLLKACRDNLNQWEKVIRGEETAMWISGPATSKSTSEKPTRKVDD
Briefly: In vitro assay PDE10A (SPA, 3H-cAMP). As to conditions: pIC50 corresponds to the −log IC50 expressed in mol/L; read-out: PDE10A2 pIC50 (converted). Type of test: biochemical. Here is the method: Rat recombinant PDE10A (rPDE10A2) was expressed in Sf9 cells using a recombinant rPDE10A baculovirus construct. Cells were harvested after 48 h of infection and the rPDE10A protein was purified by metal chelate chromatography on Ni-sepharose 6FF. Tested compounds were dissolved and diluted in 100% DMSO to a concentration 100 fold of the final concentration in the assay. Compound dilutions (0.4 μl) were added in 384 well plates to 20 μl of incubation buffer (50 mM Tris pH 7.8, 8.3 mM MgCl2, 1.7 mM EGTA). 10 μl of rPDE10A enzyme in incubation buffer was added and the reaction was started by addition of 10 μl substrate to a final concentration of 60 nM cAMP and 0.008 μCi ^3H-cAMP. The reaction was incubated for 60 minutes at room temperature. […] After sedimentation of the beads during 30 minutes the radioactivity was measured in a Perkin Elmer Topcount scintillation counter and results were expressed as cpm. For blanc values the enzyme was omitted from the reaction and replaced by incubation buffer. Control values were obtained by addition of a final concentration of 1% DMSO instead of compound. The same assay principle is applied for the measurement of the affinity of the compound for other members of the PDE family with appropriate modifications in incubation buffer, substrate concentration, incubation time and stop solution.

The test system of test [2] is apomorphine-induced stereotypy in rats. Briefly: Apomorphine-induced stereotypy in rats (APO). Type of test: in vivo. As to conditions: Rattus norvegicus, n.d.: found not active at threshold dose 2.5 mg/kg or 10 mg/kg (a). Here is the method: Apomorphine (1.0 mg/kg, i.v.)-induced stereotypy (compulsive sniffing, licking, chewing) was scored every 5 min over the first hour after injection of apomorphine, following a 1 hour interval pre-treatment with the test compound. The score system was: (3) pronounced, (2) moderate, (1) slight, and (0) absent.

[3] abbreviates: po, * not soluble, tested orally as a suspension.

Take `COCCOc1ncc(-c2c(C)nc3c(-c4ccncc4)ccnn23)cc1C` [compound 8, 3-[6-(2-methoxyethoxy)-5-methyl-3-pyridinyl]-2-methyl-8-(4-pyridinyl)-imidazo[1,2-b]pyridazine]: in test [1], the IC50 is 162 nM. Besides, the median effective dose (ED50) in test [2] (not further tested) is more than 2.5 mg/kg.

`COCCc1ccc(-c2c(C)nc3c(-c4ccncc4)ccnn23)cn1` [compound 20, 3-[6-(2-methoxyethyl)-3-pyridinyl]-2-methyl-8-(4-pyridinyl)-imidazo[1,2-b]pyridazine]: the IC50 in test [1] is 27.5 nM. This compound also returned a 50% effective dose (ED50) in test [2] (not further tested) of more than 2.5 mg/kg.

For `COCCc1ccc(-c2c(C)nc3c(N4CCOCC4)cc(C(F)(F)F)nn23)cn1` [compound 64, 3-[6-(2-methoxyethyl)-3-pyridinyl]-2-methyl-8-(4-morpholinyl)-6-(trifluoromethyl)-imidazo[1,2-b]pyridazine], the IC50 in test [1] is 479 nM. Further, in test [2] (setting [3]), the ED50 is more than 2.5 mg/kg.

Consider `Cc1cc(-c2ccncc2)c2nc(C)c(-c3ccc(N4CCOCC4)nc3)n2n1` [compound 70, 2,6-dimethyl-3-[6-(4-morpholinyl)-3-pyridinyl]-8-(4-pyridinyl)-imidazo[1,2-b]pyridazine], for which the IC50 in test [1] is 126 nM. The compound also displayed an ED50 in test [2] (not further tested) of more than 2.5 mg/kg.

On to `COCCOc1ccc(-c2c(C)nc3c(N4CCOCC4)cc(C)nn23)cn1` [compound 69, 3-[6-(2-methoxyethoxy)-3-pyridinyl]-2,6-dimethyl-8-(4-morpholinyl)-imidazo[1,2-b]pyridazine], for which the IC50 in test [1] is 324 nM. In test [2] (not further tested), this compound came in with an ED50 of more than 2.5 mg/kg.

As to `COC(C)(C)Cc1ccc(-c2c(C3CC3)nc3c(-c4ccncc4)cc(C)nn23)cn1` [compound 55, 2-cyclopropyl-3-[6-(2-methoxy-2-methylpropyl)-3-pyridinyl]-6-methyl-8-(4-pyridinyl)-imidazo[1,2-b]pyridazine], the IC50 in test [1] is 38 nM. The ED50 in test [2] (not further tested) was more than 2.5 mg/kg.

For the compound `COCCc1ccc(-c2c(C)nc3c(N4CCOCC4)cc(C4CC4)nn23)cn1` [compound 13, 6-cyclopropyl-3-[6-(2-methoxyethyl)-3-pyridinyl]-2-methyl-8-(4-morpholinyl)-imidazo[1,2-b]pyridazine], the IC50 in test [1] is 195 nM. In test [2] (not further tested), this compound displayed an ED50 of more than 2.5 mg/kg.

For the compound `COCC(C)(C)c1ccc(-c2c(C)nc3c(N4CCOCC4)ccnn23)cn1` [compound 4, 3-[6-(2-methoxy-1,1-dimethylethyl)-3-pyridinyl]-2-methyl-8-(4-morpholinyl)-imidazo[1,2-b]pyridazine], the IC50 in test [1] was 40.7 nM. The ED50 in test [2] (not further tested) was more than 2.5 mg/kg.

Turning to `COC(C)(C)Cc1ccc(-c2cnc3c(N4CCOCC4)ccnn23)cn1` [compound 51, 3-[6-(2-methoxy-2-methylpropyl)-3-pyridinyl]-8-(4-morpholinyl)-imidazo[1,2-b]pyridazine], the IC50 in test [1] was 105 nM. The ED50 in test [2] (not further tested) is more than 2.5 mg/kg.

For the compound `COCCc1ccc(-c2c(C)nc3c(N4CCOCC4)cc(C)nn23)cn1` [compound 23, 3-[6-(2-methoxyethyl)-3-pyridinyl]-2,6-dimethyl-8-(4-morpholinyl)-imidazo[1,2-b]pyridazine], the IC50 in test [1] is 112 nM. The same compound returned an ED50 in test [2] (not further tested) of more than 2.5 mg/kg.

Consider `Cc1nc2c(N3CCOCC3)ccnn2c1-c1ccc(NC(C)C)nc1` [compound 90, N-(1-methylethyl)-5-[2-methyl-8-(4-morpholinyl)imidazo[1,2-b]pyridazin-3-yl]-2-pyridinamine], for which the IC50 in test [1] is 67.6 nM. The ED50 in test [2] (not further tested) is more than 2.5 mg/kg.

Consider `COC(C)(C)Cc1ccc(-c2c(C3CC3)nc3c(N4CCOCC4)ccnn23)cn1` [compound 45, 2-cyclopropyl-3-[6-(2-methoxy-2-methylpropyl)-3-pyridinyl]-8-(4-morpholinyl)-imidazo[1,2-b]pyridazine], for which the IC50 in test [1] was 50.1 nM. This compound showed an ED50 in test [2] (not further tested) of more than 2.5 mg/kg.

On to `Cc1nc2c(-c3ccncc3)cc(C3CC3)nn2c1-c1ccc(C2CCOCC2)nc1` [compound 81, 6-cyclopropyl-2-methyl-8-(4-pyridinyl)-3-[6-(tetrahydro-2H-pyran-4-yl)-3-pyridinyl]-imidazo[1,2-b]pyridazine], for which the IC50 in test [1] was 195 nM. The ED50 in test [2] (not further tested) is more than 2.5 mg/kg.

Turning to `Cc1nc2c(N3CCOCC3)ccnn2c1-c1ccc(N2CCCC2)nc1` [compound 89, 2-methyl-8-(4-morpholinyl)-3-[6-(1-pyrrolidinyl)-3-pyridinyl]-imidazo[1,2-b]pyridazine], in test [1], the IC50 is 132 nM. The 50% effective dose (ED50) in test [2] (setting [3]) was more than 2.5 mg/kg.

As for `COCCOc1ccc(-c2c(C3CC3)nc3c(-c4ccncc4)ccnn23)cn1` [compound 44, 2-cyclopropyl-3-[6-(2-methoxyethoxy)-3-pyridinyl]-8-(4-pyridinyl)-imidazo[1,2-b]pyridazine], the IC50 in test [1] is 45.7 nM. This compound registered an ED50 in test [2] (not further tested) of more than 2.5 mg/kg.

For the compound `Cc1nc2c(N3CCOCC3)ccnn2c1-c1ccnc(NC(C)C)c1` [compound 93, N-(1-methylethyl)-4-[2-methyl-8-(4-morpholinyl)imidazo[1,2-b]pyridazin-3-yl]-2-pyridinamine], in test [1], the IC50 is 25.1 nM. The compound further showed an ED50 in test [2] (not further tested) of more than 2.5 mg/kg.

As to `COCCOc1ccc(-c2c(C)nc3c(-c4ccncc4)cc(C4CC4)nn23)cn1` [compound 59, 6-cyclopropyl-3-[6-(2-methoxyethoxy)-3-pyridinyl]-2-methyl-8-(4-pyridinyl)-imidazo[1,2-b]pyridazine], the IC50 in test [1] was 234 nM. This compound also came in with an ED50 in test [2] (not further tested) of more than 2.5 mg/kg.

For the compound `CCOC(C)(C)c1ccc(-c2c(C)nc3c(N4CCOCC4)ccnn23)cn1` [compound 5, 3-[6-(1-ethoxy-1-methylethyl)-3-pyridinyl]-2-methyl-8-(4-morpholinyl)-imidazo[1,2-b]pyridazine], the IC50 in test [1] is 19.1 nM. Besides, the ED50 in test [2] (not further tested) was more than 2.5 mg/kg.

With `CCc1ccc(-c2c(C3CC3)nc3c(-c4ccncc4)ccnn23)cn1` [compound 87, 2-cyclopropyl-3-(6-ethyl-3-pyridinyl)-8-(4-pyridinyl)-imidazo[1,2-b]pyridazine], the IC50 in test [1] was 21.9 nM. The compound also yielded a 50% effective dose (ED50) in test [2] (not further tested) of more than 2.5 mg/kg.

As to `CCOCCc1ccc(-c2c(C)nc3c(N4CCOCC4)ccnn23)cn1` [compound 25, 3-[6-(2-ethoxyethyl)-3-pyridinyl]-2-methyl-8-(4-morpholinyl)-imidazo[1,2-b]pyridazine], the IC50 in test [1] was 33.9 nM. For the same compound, the ED50 in test [2] (setting [3]) was more than 2.5 mg/kg.

On to `Cc1nc2c(N3CCOCC3)ccnn2c1-c1ccc(CCN2CCCC2)nc1` [compound 77, 2-methyl-8-(4-morpholinyl)-3-[6-[2-(1-pyrrolidinyl)ethyl]-3-pyridinyl]-imidazo[1,2-b]pyridazine], for which the IC50 in test [1] was 129 nM. This compound also registered a median effective dose (ED50) in test [2] (not further tested) of more than 2.5 mg/kg.

Consider `Cc1nc2c(N3CCOCC3)ccnn2c1-c1cn[nH]c1` [compound 116, 2-methyl-8-(4-morpholinyl)-3-(1H-pyrazol-4-yl)-imidazo[1,2-b]pyridazine], for which the IC50 in test [1] was 132 nM. Also, the median effective dose (ED50) in test [2] (setting [3]) was more than 10 mg/kg.

Take `Cc1nc2c(N3CCOCC3)ccnn2c1-c1ccnc(CC(C)C)c1` [compound 105, 2-methyl-3-[2-(2-methylpropyl)-4-pyridinyl]-8-(4-morpholinyl)-imidazo[1,2-b]pyridazine]: in test [1], the IC50 was 25.1 nM. Further, the ED50 in test [2] (not further tested) is more than 2.5 mg/kg.

For the compound `COCCOc1ccc(-c2cnc3c(N4CCOCC4)ccnn23)cn1` [compound 52, 3-[6-(2-methoxyethoxy)-3-pyridinyl]-8-(4-morpholinyl)-imidazo[1,2-b]pyridazine], the IC50 in test [1] was 468 nM. For the same compound, the ED50 in test [2] (not further tested) is more than 2.5 mg/kg.
